Test results as given in patent publication US12097202B2 (Kadmon Corporation, LLC, priority 2022, dated 2024).

System: patients with chronic GVHD
Assay: Example 2: phase II randomized study of belumosudil (KD025-213) in cGVHD, efficacy and safety;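 further: allogeneic HCT recipients aged ≥12 years with persistent cGVHD after two to five earlier systemic treatment lines, responses judged by site investigators, 12-month analysis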
Conditions: for Cough / Diarrhea / Dyspnea / Fatigue / Headache / Muscle spasms / Nausea / Peripheral edema / Vomiting: All grades; for Hyperglycemia / Hypertension / Pneumonia: Grade ≥3; for ALT increased / AST increased / Bilirubin conjugated increased / Blood alkaline phosphatase increased / GGT increased / Hypoalbuminemia / LFT increased / Transaminases increased: Liver-related AE; for Clinically significant improvement from baseline (LSS), Overall: decrease ≥7 points in LSS score
[1] = 200 mg BID (n = 66), of subjects with organ involved
[2] = 200 mg QD (n = 66), of subjects with organ involved
[3] = Total (N = 132), of subjects with organ involved
[4] = Total, N=132, mITT, listed as Belumosudil

Description: Concomitant treatment with supportive care therapies for chronic GVHD was permitted. […] Initiation of new systemic chronic GVHD therapy while on study was not permitted.
Eligible subjects were allogeneic hematopoietic cell transplant recipients aged ≥12 years with persistent cGVHD manifestations after receiving 2 to 5 prior systemic lines of therapy. Subjects were required to be receiving stable corticosteroid therapy for 2 weeks prior to screening and to have a Karnofsky or Lansky Performance Status Scale score≥60. Certain concurrent immunosuppressive medications were allowed because drug-drug interactions were not anticipated.
Randomization was stratified (1:1) by cGVHD severity and prior exposure to ibrutinib.
All responses were assessed by the study site investigators. Secondary end points included duration of response (DOR), time to response, changes in LSS summary score, failure-free survival (FFS), corticosteroid dose reductions, and overall survival (OS). DOR was measured from the time of initial PR or CR until documented progression from best response of cGVHD, time from initial response to start of additional systemic cGVHD therapy, or death. The 7-day LSS summary score was calculated based on the developer recommendations and was compared with the score from baseline; an improvement ≥7 points was considered clinically meaningful. […] Relative dose intensity (RDI) was used as a surrogate measure of drug tolerability and was defined as actual dose intensity/planned dose intensity, where dose intensity was defined as the cumulative dose over the duration of exposure (mg/d). Actual dose intensity captured the sum of actual doses received over the duration of exposure and incorporated dose reductions and/or interruptions.
The Hochberg procedure was used for multiplicity adjustment for the primary end point of best ORR. […] CI was calculated using the Clopper-Pearson interval (exact) method.

Structure (SMILES): CC(C)NC(=O)COc1cccc(-c2nc(Nc3ccc4[nH]ncc4c3)c3ccccc3n2)c1 [belumosudil, 2-{3-[4-(1H-indazol-5-ylamino)-2-quinazolinyl]phenoxy}-N-(propan-2-yl) acetamide]
- CR, Eyes [1]: (12) %
- CR, Joints and fascia [1]: (20) %
- CR, Lower GI [1]: (57) %
- ORR, Esophagus [1]: (42) %
- ORR, Lower GI [1]: (71) %
- ORR, Lungs [1]: (22) %
- ORR, Mouth [1]: (57) %
- ORR, Skin [1]: (42) %
- ORR, Upper GI [1]: (40) %
- PR, Joints and fascia [1]: (47) %
- PR, Lower GI [1]: (14) %
- CR, Joints and fascia [2]: (20) %
- CR, Liver [2]: (22) %
- CR, Lungs [2]: (17) %
- CR, Upper GI [2]: (54) %
- ORR, Eyes [2]: (33) %
- ORR, Joints and fascia [2]: (75) %
- ORR, Liver [2]: (33) %
- ORR, Lower GI [2]: (67) %
- ORR, Lungs [2]: (29) %
- ORR, Mouth [2]: (53) %
- ORR, Skin [2]: (33) %
- ORR, Upper GI [2]: (62) %
- PR, Skin [2]: (18) %
- Clinically significant improvement from baseline (LSS), Nonresponder (200 mg daily): (29) %
- Any AE (200 mg daily (n = 66)): (99) %
- Deaths (200 mg daily (n = 66)): (12) %
- Drug-related AEs (200 mg daily (n = 66)): (74) %
- Drug-related SAEs (200 mg daily (n = 66)): (8) %
- Grade ≥3 AEs (200 mg daily (n = 66)): (56) %
- Liver-related AEs (200 mg daily (n = 66)): (18) %
- SAEs (200 mg daily (n = 66)): (41) %
- CS discontinuation (200 mg daily, n=66, mITT): (20) %
- FFS at 6 mo (200 mg daily, n=66, mITT): 73%
- ORR (best, any time) (200 mg daily, n=66, mITT): (74) %
- ORR for responses occurring within 6 mo of treatment (200 mg daily, n=66, mITT): (71) %
- ORR for responses occurring within 12 mo of treatment (200 mg daily, n=66, mITT): (74) %
- PR, within 6 mo of treatment (200 mg daily, n=66, mITT): (68) %
- PR, within 12 mo of treatment (200 mg daily, n=66, mITT): (68) %
- Clinically significant improvement from baseline (LSS), Nonresponder (200 mg twice daily): (33) %
- Clinically significant improvement from baseline (LSS), Responder (200 mg twice daily): (71) %
- Any AE (200 mg twice daily (n = 66)): (100) %
- Deaths (200 mg twice daily (n = 66)): (9) %
- Drug-related AEs (200 mg twice daily (n = 66)): (61) %
- Drug-related SAEs (200 mg twice daily (n = 66)): (3) %
- Grade ≥3 AEs (200 mg twice daily (n = 66)): (52) %
- Liver-related AEs (200 mg twice daily (n = 66)): (29) %
- SAEs (200 mg twice daily (n = 66)): (35) %
- FFS at 6 mo (200 mg twice daily, n=66, mITT): 76%
- ORR (best, any time) (200 mg twice daily, n=66, mITT): (77) %
- PR, within 6 mo of treatment (200 mg twice daily, n=66, mITT): (71) %
- PR, within 12 mo of treatment (200 mg twice daily, n=66, mITT): (73) %
- Cough (200 mg daily (n = 66)): (30) %
- Diarrhea (200 mg daily (n = 66)): (35) %
- Dyspnea (200 mg daily (n = 66)): (32) %
- Fatigue (200 mg daily (n = 66)): (46) %
- Headache (200 mg daily (n = 66)): (20) %
- Muscle spasms (200 mg daily (n = 66)): (20) %
- Nausea (200 mg daily (n = 66)): (35) %
- Peripheral edema (200 mg daily (n = 66)): (26) %
- Vomiting (200 mg daily (n = 66)): (27) %
- Cough (200 mg twice daily (n = 66)): (26) %
- Diarrhea (200 mg twice daily (n = 66)): (32) %
- Dyspnea (200 mg twice daily (n = 66)): (18) %
- Fatigue (200 mg twice daily (n = 66)): (30) %
- Headache (200 mg twice daily (n = 66)): (27) %
- Muscle spasms (200 mg twice daily (n = 66)): (20) %
- Nausea (200 mg twice daily (n = 66)): (27) %
- Peripheral edema (200 mg twice daily (n = 66)): (20) %
- Vomiting (200 mg twice daily (n = 66)): (15) %
- Cough (Total (N = 132)): (28) %
- Diarrhea (Total (N = 132)): (33) %
- Dyspnea (Total (N = 132)): (25) %
- Fatigue (Total (N = 132)): (38) %
- Headache (Total (N = 132)): (24) %
- Muscle spasms (Total (N = 132)): (20) %
- Nausea (Total (N = 132)): (31) %
- Peripheral edema (Total (N = 132)): (23) %
- Vomiting (Total (N = 132)): (21) %
- Hyperglycemia (200 mg daily (n = 66)): (5) %
- Hypertension (200 mg daily (n = 66)): (6) %
- Pneumonia (200 mg daily (n = 66)): (9) %
- Hyperglycemia (200 mg twice daily (n = 66)): (5) %
- Hypertension (200 mg twice daily (n = 66)): (6) %
- Pneumonia (200 mg twice daily (n = 66)): (6) %
- Hyperglycemia (Total (N = 132)): (5) %
- Hypertension (Total (N = 132)): (6) %
- Pneumonia (Total (N = 132)): (8) %
- ALT increased (200 mg daily (n = 66)): (6) %
- AST increased (200 mg daily (n = 66)): (8) %
- Bilirubin conjugated increased (200 mg daily (n = 66)): (2) %
- Blood alkaline phosphatase increased (200 mg daily (n = 66)): (6) %
- GGT increased (200 mg daily (n = 66)): (9) %
- Hypoalbuminemia (200 mg daily (n = 66)): (3) %
- LFT increased (200 mg daily (n = 66)): (2) %
- Transaminases increased (200 mg daily (n = 66)): (2) %
- ALT increased (200 mg twice daily (n = 66)): (11) %
- AST increased (200 mg twice daily (n = 66)): (12) %
- Bilirubin conjugated increased (200 mg twice daily (n = 66)): 0%
- Blood alkaline phosphatase increased (200 mg twice daily (n = 66)): (9) %
- GGT increased (200 mg twice daily (n = 66)): (15) %
- Hypoalbuminemia (200 mg twice daily (n = 66)): (3) %
- LFT increased (200 mg twice daily (n = 66)): 0%
- Transaminases increased (200 mg twice daily (n = 66)): (2) %
- ALT increased (Total (N = 132)): (8) %
- AST increased (Total (N = 132)): (10) %
- Bilirubin conjugated increased (Total (N = 132)): (1) %
- Blood alkaline phosphatase increased (Total (N = 132)): (8) %
- GGT increased (Total (N = 132)): (12) %
- Hypoalbuminemia (Total (N = 132)): (3) %
- LFT increased (Total (N = 132)): (1) %
- Transaminases increased (Total (N = 132)): (2) %
- Clinically significant improvement from baseline (LSS), Nonresponder (Total): (31) %
- Clinically significant improvement from baseline (LSS), Responder (Total): (70) %
- Any AE (Total (N = 132)): (99) %
- Drug-related AEs (Total (N = 132)): (67) %
- Drug-related SAEs (Total (N = 132)): (5) %
- Grade ≥3 AEs (Total (N = 132)): (54) %
- Liver-related AEs (Total (N = 132)): (24) %
- SAEs (Total (N = 132)): (38) %
- CR, Esophagus [3]: (45) %
- CR, Eyes [3]: (14) %
- CR, Joints and fascia [3]: (20) %
- CR, Liver [3]: (31) %
- CR, Lower GI [3]: (62) %
- CR, Lungs [3]: (13) %
- CR, Mouth [3]: (44) %
- CR, Skin [3]: (16) %
- CR, Upper GI [3]: (48) %
- ORR, Esophagus [3]: (45) %
- ORR, Eyes [3]: (42) %
- ORR, Joints and fascia [3]: (71) %
- ORR, Liver [3]: (39) %
- ORR, Lower GI [3]: (69) %
- ORR, Lungs [3]: (26) %
- ORR, Mouth [3]: (56) %
- ORR, Skin [3]: (37) %
- ORR, Upper GI [3]: (52) %
- PR, Esophagus [3]: 0%
- PR, Eyes [3]: (28) %
- PR, Joints and fascia [3]: (51) %
- PR, Liver [3]: (8) %
- PR, Lower GI [3]: (8) %
- PR, Lungs [3]: (13) %
- PR, Mouth [3]: (11) %
- PR, Skin [3]: (21) %
- PR, Upper GI [3]: (4) %
- Deaths (Total (N = 132), six during LTFU): (11) %
- CR, within 6 mo of treatment (Total, N=132, mITT): (2) %
- CR, within 12 mo of treatment (Total, N=132, mITT): (5) %
- FFS at 6 mo (Total, N=132, mITT): 75%
- FFS at 12 mo (Total, N=132, mITT): 56%
- Mean change in CS dose from baseline, Overall (Total, N=132, mITT): −45%
- Median CS reduction from baseline to greatest reduction (Total, N=132, mITT): 50%
- ORR (best, any time) (Total, N=132, mITT): (76) %
- ORR for responses occurring within 6 mo of treatment (Total, N=132, mITT): (72) %
- ORR for responses occurring within 12 mo of treatment (Total, N=132, mITT): (75) %
- PR, within 6 mo of treatment (Total, N=132, mITT): (70) %
- PR, within 12 mo of treatment (Total, N=132, mITT): (71) %
- Proportion with CS reduction (Total, N=132, mITT): 65%
- CS discontinuation [4]: 21) %
- Proportion with CS reduction [4]: (65) %
- Clinically significant improvement from baseline (LSS), Overall (200 mg daily, n=66, mITT): 59%
- Clinically significant improvement from baseline (LSS), Overall (200 mg daily, n=66, mITT, listed as Belumosudil): (59) %
- Clinically significant improvement from baseline (LSS), Overall (200 mg twice daily, n=66, mITT): 62%
- Clinically significant improvement from baseline (LSS), Overall (200 mg twice daily, n=66, mITT, listed as Belumosudil): (62) %
- Clinically significant improvement from baseline (LSS), Overall (Total, N=132, mITT): (61) %
- Grade ≥3 anemia (in vivo): 3%
- Grade ≥3 cytopenias (in vivo): < 4%
- Grade ≥3 neutropenia (in vivo): 2%
- Grade ≥3 thrombocytopenia (in vivo): 2%
- SAE: pneumonia (in vivo): 7%
- discontinued because of overall AEs (in vivo): 21%
- discontinued because of possible drug-related AEs (in vivo): 12%
- discontinued because of progression of cGVHD (in vivo): 16%
- discontinued because of progression of underlying malignant disease (in vivo): 4%
- grade 3 or 4 AE: hyperglycemia (in vivo): 5%
- grade 3 or 4 AE: hypertension (in vivo): 6%
- grade 3 or 4 AE: pneumonia (in vivo): 8%
- liver-related AE: increased GGT (in vivo): 12%
- subjects who discontinued calcineurin inhibitor (CNI) therapy (in vivo): 22%
- subjects who received an RDI >95% (in vivo): Eighty-one
- subjects with >1 SAE (in vivo): Thirty eight
- subjects with increased liver function tests (LFTs) (in vivo): Twenty-four
- organ-specific best ORR, esophagus (mITT, pooled): 45%
- organ-specific best ORR, eyes (mITT, pooled): 42%
- organ-specific best ORR, joints/fascia (mITT, pooled): 71%
- organ-specific best ORR, liver (mITT, pooled): 39%
- organ-specific best ORR, lower GI tract (mITT, pooled): 69%
- organ-specific best ORR, lungs (mITT, pooled): 26%
- organ-specific best ORR, mouth (mITT, pooled): 55%
- organ-specific best ORR, skin (mITT, pooled): 37%
- organ-specific best ORR, upper gastrointestinal (GI) tract (mITT, pooled): 52%
- nonrelapse mortality (NRM) rate (overall): 7%
- share of responses seen after 6 to 12 months of treatment (pooled): 9%
- ORRs observed in all subgroups (pooled across arms, mITT): 61-85%
